Laboratory results from US12708673B2, “Methods and compositions related to peptides and proteins with c-terminal elements” (Sanford Burnham Prebys Medical Discovery Institute, priority 2008, dated 2026).
“Also recorded” adds a separate entry of the source.

Tests used:
[1] = system: PPC-1 cells; assay: T7 phage binding to PPC-1 (PPC1) cells at 4° C., quantified by titration/plaque assay; assay type: cell-based, human
Procedure: FIG. 2A: Binding of T7 phage to prostate cancer cells depends on the display of a C-terminal arginine on the phage particles. PPC1 cells were incubated with T7 bacteriophage displaying derivatives of the G7 (upper graph) or RPARPAR peptide (SEQ ID NO: 2) (lower graph) at 4° C., and the bound phage was quantified by plaque assay. Binding is expressed in fold over of the non-binding G7 control phage. FIG. 2B: Phage displaying C-terminal arginine is internalized into cultured PPC1 cells (arrow, nuclear internalization; arrowhead, cytoplasmic internalization). A panel of T7 phage clones were incubated at 37° C. with PPC1 cells grown on collagen-coated coverslips, stained with anti T7 antibody and imaged by confocal microscopy.
(§1) Phage display. For in vivo phage display, mice were injected intravenously with 10^10 plaque-forming units (pfu) of T7 phage followed by perfusion of the circulatory system and determination of the bound phage in target organs by titration. For cell binding studies on cultured cells (in vitro display) and organ-derived cell suspensions (ex vivo display), the cells were incubated with 10^9 pfu of phage at 4° C., washed, lysed, and quantified by titration. Incubation at 37° C. followed by low pH wash (glycine-HCl, pH 2.5) was used to assess the amount of internalized phage.
For biopanning and phage binding studies (Hoffman, J. A. et al., 2004), cultured cells were grown to confluence and harvested with trypsin and mouse organs were dissociated using Medimachine (BD Biosciences, San Jose, CA). To measure phage binding, 10^6 cells in binding buffer (DMEM containing 1% BSA) were incubated with 10^9 pfu/ml of T7 phage for 1 hour at 4° C. The cells were washed 4 times with the binding buffer, lysed in LB bacterial growth medium containing 1% NP-40, and titrated. Phage internalization assays used the same procedure, except that the cells were incubated with the phage at 37° C., and that an acidic buffer (500 mM sodium chloride, 0.1 M glycine, 1% BSA, pH 2.5) was used instead of binding buffer in the second wash.
Centrifugation on a silicone oil cushion (1.03 g/ml) was used to separate unbound phage from cells during time course experiments. Inhibitors of phage binding and internalization (heparin, chondroitin, glycocalyx removal enzymes, endocytosis inhibitors, free peptides, quantum dots and UV-inactivated phage) were added to the cells 20 minutes prior to incubation with phage. Endocytosis inhibitors used in this study were the following: nystatin (50 μg/ml), genistein (100 μg/ml), chlorpromazine (5 μg/ml), 5-(N-ethyl-N-isopropyl) amiloride (100 μM), wortmannin (10 μM).

[2] = system: Du-145; assay: RPARPAR phage binding to cultured cells at 4° C.; assay type: cell-based, human; conditions: Du-145 prostate cancer cells
Procedure: (§2) FIG. 15A: Binding of RPARPAR (SEQ ID NO:2) phage to the cultured cells at 4° C. in vitro. FIG. 15B: Binding of RPARPAR (SEQ ID NO:2) phage to primary cell suspensions of mouse organs at 4° C. ex vivo. FIGS. 15C and 15D: Tissue distribution of intravenously injected RPARPAR (SEQ ID NO:2) phage after 20 minutes of circulation time. FIG. 15C: Phage was quantified by titration, tissue binding is expressed as fold G7 phage. Statistical analysis was performed by Student's t-test (c). n=3; error bars indicate s.d.; double asterisk, p<0.01, triple asterisk, p<0.001. FIG. 15D (panels d and e): Immunofluorescence localization of T7 phage (light coloring) in lung sections of mice injected intravenously with RPARPAR (SEQ ID NO:2) (d) or G7 (e) phage. Widespread immunoreactivity is present in the lungs of mice injected with RPARPAR (SEQ ID NO:2) (arrowheads in d) but not G7 (with occasional labeling seen in vessels, arrows in e). Scale bar: 50 μm.
(§3) Phage display. For in vivo phage display, mice were injected intravenously with 10^10 plaque-forming units (pfu) of T7 phage followed by perfusion of the circulatory system and determination of the bound phage in target organs by titration. For cell binding studies on cultured cells (in vitro display) and organ-derived cell suspensions (ex vivo display), the cells were incubated with 10^9 pfu of phage at 4° C., washed, lysed, and quantified by titration. […]

[3] = system: PC-3; assay: RPARPAR phage binding to cultured cells at 4° C.; assay type: cell-based, human; conditions: PC-3 prostate cancer cells
Procedure: as §2, §3

[4] = system: primary cells derived from normal mouse organs; assay: RPARPAR phage binding to primary cell suspensions of mouse organs at 4° C. ex vivo; assay type: cell-based; conditions: panel of normal mouse organs
Procedure: as §2, §3

[5] = Tissue distribution of intravenously injected phage in mice (titration, immunofluorescence); assay type: in vivo, mouse; conditions: intravenous
Procedure: as §2, §1
In vivo phage homing studies in mice were carried out by injecting 10^10 pfu of T7 phage into tail vein and 10 minutes to 1 hour later, the mice were perfused with DMEM through the left ventricle of the heart. The organs of interest were collected, homogenized in 1% NP40 and the phage was quantified by titration.

In the case of RPARPAR [RPARPAR phage], the “Phage binding to PPC-1 cells (in words)” value ([1]; 4° C.) is reported as “stronger binding than the GGGGGGR; also recorded: robust binding and internalization”, the “Time to plateau of phage binding” value ([1]; 4° C.) is reported as 20 min and the “Phage binding after trypsin treatment of PPC-1 cells” value ([1]; trypsin treatment of cells prior to binding, data not shown) is reported as “decreased binding”. For the same substance, the Phage binding [2] was “bound”, the Phage binding [3] was “bound” and the Phage binding [4] was “also bound”. The “Penetration into tissue parenchyma (lungs)” value [5] was “able to penetrate into tissue parenchyma”, the “Phage immunoreactivity in lung sections” value [5] was “seen throughout the tissue” and the “Accumulation of intravenously injected phage in the heart” value ([5]; 20 minutes of circulation) was “to a lesser extent”. The “Accumulation of intravenously injected phage in the lungs” value ([5]; 20 minutes of circulation) was “accumulated strongly”.
